Test results published in PMC11802874, “The hypolipidemic effect of MI-883, the combined CAR agonist/ PXR antagonist, in diet-induced hypercholesterolemia model” (Nature Communications, 2025).
Values joined by “and” are separate entries in the source; they are usually repeats but may differ in a detail not shown here. Equal entries are not always repeated.

Key:
[1] = molecular target: T1, human CAR ligand-binding domain (LBD) (Homo sapiens, UniProt Q14994); test: TR-FRET CAR coactivator assay (LanthaScreen); format: biochemical
T1 construct: purchased ThermoFisher Scientific PV4836

[2] = system: humanized PXR-CAR-CYP3A4/3A7 mice; test: Hepatic induction study in humanized PXR-CAR-CYP3A4/3A7 mice (i.p.); format: in vivo, mouse
Source text: In the induction experiments, […] was sampled from the gallbladder.

[3] = system: humanized PXR-CAR-CYP3A4/3A7 mice; test: Bile acid analysis in plasma, liver and stool (HFD study); format: in vivo, mouse
Method: Materials and reagents and sample preparation have been described in our last paper[63] (see Supplementary, Chapter 12). Concentrations of bile acids in plasma, bile, and feces were determined using the UHPLC-MS method. The bile acids separation was conducted on the ACQUITY UPLC I-Class System (Waters, Milford, MA, USA) using a Triart C18 column (50 mm × 2.1 mm ID, 1.9 µm) from YMC, Japan. The column was maintained at 45 °C and was safeguarded by a disposable CrudCatcher in-line filter (Phenomenex, Torrance, CA, USA). The mobile phase flowed at a rate of 0.35 mL/min and consisted of solvent A (0.5 mmol/L ammonium acetate, 0.001% v/v acetic acid in water) and solvent B (0.5 mmol/L ammonium acetate, 0.001% v/v acetic acid in a 3:1 v/v mixture of methanol and acetonitrile). The gradient program followed this sequence. […] This was succeeded by an isocratic washout with 95% (v/v) solvent B from 9.0 to 10.5 min, followed by equilibration with 40% (v/v) solvent B from 10.5 to 12 min. 2 μL of sample were injected into column. Column effluent was monitored with Xevo TQ-XS triple quadrupole detector operated in positive electrospray mode. Further details can be found in the publication by Uher et al.[72].
The processing of the UHPLC-MS data was performed using TargetLynx software (Waters, Milford, MA, USA). The ratio of an analyte’s peak area and the internal standard was evaluated against a calibration curve, and the concentration for each bile acid was calculated. For further data analysis, the concentrations of individual BAs were summed to calculate the concentration of conjugated, unconjugated, 12-OH, non-12-OH, and total bile acids.
To cover a wide concentration range of bile acids, two sets of plasma aliquots were prepared. The first set, with a volume of 10 μL, was diluted tenfold with MilliQ water. The second set, with a volume of 100 μL, was used without dilution, and the subsequent procedure remained identical for both sets. […]

[4] = Metabolic stability in human liver S9 fraction
Method: Shimadzu HPLC system including vacuum degasser, gradient pumps, reverse phase HPLC column, column oven, and autosampler with an API 4000 QTRAP mass spectrometer (Applied Biosystems/MDS Sciex (AB Sciex) with Turbo V ion source and TurboIonspray interface were used. The reference compound midazolam, which is metabolized both by phase I and phase II enzymes, was used. The elimination constant (kel), half-life (t1/2), and intrinsic clearance (Clint) were determined[19] (Table S1).
Supplementary Figure 1. […] Test compounds (1 μM, final DMSO concentration 1%) were incubated at 37 °C with shaking at 100 rpm. Four time points over 120 minutes have been analyzed. The reactions were stopped by adding 420 μL of acetonitrile-water mixture (90:10). Supernatants were analyzed by the HPLC system coupled with a tandem mass spectrometer. The percentage (in % of initial concertation) of the test compounds remaining after incubation in plasma and their half-lives (t1/2) were calculated. […] The stability of the compound was tested in human liver S9 fraction. Cofactors were used such as UDPGA (for glucuronidation), PAPS (for sulfation), and reduced glutathione (for conjugation of GSH). Compounds were tested in triplicate with or without NADPH. Propantheline and midazolam were used as unstable control compounds in the experiments. Data represent the means±S.D. from at least three independent samples.

[5] = molecular target: hERG potassium channel (Homo sapiens, UniProt Q12809); test: Thallium flux FLIPR-based hERG assay; format: cell-based
Source text: Thallium flux FLIPR-based assay for the identification of hERG potassium channel inhibition

[6] = molecular target: ERβ (Homo sapiens, UniProt Q92731); test: Luciferase reporter gene assay ERβ, HepG2
Source text: Gal4-LBD constructs of tested nuclear receptors have been used together with pGL4.31[luc2P/GAL4UAS/Hygro] luciferase reporter construct and pRL-TK Renilla expression vector (both from Promega, Hercules, USA) in HepG2 cells transfected with Lipofectamine 2000 or 3000 reagents. For GRα and FXR receptors, full-length expression vectors have been used with pGRE-luc or pFXRE-luc luciferase constructs. For the aryl hydrocarbon receptor (AhR), p1A1-luc construct was used with only pRL-TK vector for transfection normalization. A dual reporter assay (Promega, Hercules, USA) was used to analyze both firefly and Renilla luciferase activities.
Gal4-LBD constructs of tested nuclear receptors have been used together with pGL5-luc luciferase reporter construct and pRL-TK Renilla expression vector in HepG2 cells transfected with Lipofectamine 2000 or 3000 reagents. For GRα and FXR receptors, full-length expression vectors have been used with pGRE-luc or pFXRE-luc luciferase constructs. For the aryl hydrocarbon receptor (AhR), p1A1-luc construct was used with only pRL-TK vector for transfection normalization. […] Bars represent means±S.D. (n=3).

[7] = single agents i.p.: Rif 3×5 mg/kg, CITCO 10 mg/kg two doses, MI-883 10 mg/kg 3 days

T1 sequence (Q14994 109-348 isoform Q14994-2 limits assumed, other chains not shown): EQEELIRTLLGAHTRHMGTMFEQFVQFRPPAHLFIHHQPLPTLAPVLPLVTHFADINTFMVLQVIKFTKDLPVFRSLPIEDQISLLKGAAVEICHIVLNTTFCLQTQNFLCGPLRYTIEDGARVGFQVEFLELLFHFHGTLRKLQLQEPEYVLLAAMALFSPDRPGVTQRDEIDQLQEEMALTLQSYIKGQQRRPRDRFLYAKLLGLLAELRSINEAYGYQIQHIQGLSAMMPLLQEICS
Sequence of ERβ (Q92731 264-498 limits assumed, species assumed): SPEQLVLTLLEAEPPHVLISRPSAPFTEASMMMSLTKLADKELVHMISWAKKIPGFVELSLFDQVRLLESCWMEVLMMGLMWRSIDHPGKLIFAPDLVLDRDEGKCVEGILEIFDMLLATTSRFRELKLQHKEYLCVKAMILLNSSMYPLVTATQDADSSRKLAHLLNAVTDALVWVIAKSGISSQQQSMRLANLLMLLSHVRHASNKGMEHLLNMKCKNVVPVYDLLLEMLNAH
Sequence of hERG potassium channel (Q12809 whole entry): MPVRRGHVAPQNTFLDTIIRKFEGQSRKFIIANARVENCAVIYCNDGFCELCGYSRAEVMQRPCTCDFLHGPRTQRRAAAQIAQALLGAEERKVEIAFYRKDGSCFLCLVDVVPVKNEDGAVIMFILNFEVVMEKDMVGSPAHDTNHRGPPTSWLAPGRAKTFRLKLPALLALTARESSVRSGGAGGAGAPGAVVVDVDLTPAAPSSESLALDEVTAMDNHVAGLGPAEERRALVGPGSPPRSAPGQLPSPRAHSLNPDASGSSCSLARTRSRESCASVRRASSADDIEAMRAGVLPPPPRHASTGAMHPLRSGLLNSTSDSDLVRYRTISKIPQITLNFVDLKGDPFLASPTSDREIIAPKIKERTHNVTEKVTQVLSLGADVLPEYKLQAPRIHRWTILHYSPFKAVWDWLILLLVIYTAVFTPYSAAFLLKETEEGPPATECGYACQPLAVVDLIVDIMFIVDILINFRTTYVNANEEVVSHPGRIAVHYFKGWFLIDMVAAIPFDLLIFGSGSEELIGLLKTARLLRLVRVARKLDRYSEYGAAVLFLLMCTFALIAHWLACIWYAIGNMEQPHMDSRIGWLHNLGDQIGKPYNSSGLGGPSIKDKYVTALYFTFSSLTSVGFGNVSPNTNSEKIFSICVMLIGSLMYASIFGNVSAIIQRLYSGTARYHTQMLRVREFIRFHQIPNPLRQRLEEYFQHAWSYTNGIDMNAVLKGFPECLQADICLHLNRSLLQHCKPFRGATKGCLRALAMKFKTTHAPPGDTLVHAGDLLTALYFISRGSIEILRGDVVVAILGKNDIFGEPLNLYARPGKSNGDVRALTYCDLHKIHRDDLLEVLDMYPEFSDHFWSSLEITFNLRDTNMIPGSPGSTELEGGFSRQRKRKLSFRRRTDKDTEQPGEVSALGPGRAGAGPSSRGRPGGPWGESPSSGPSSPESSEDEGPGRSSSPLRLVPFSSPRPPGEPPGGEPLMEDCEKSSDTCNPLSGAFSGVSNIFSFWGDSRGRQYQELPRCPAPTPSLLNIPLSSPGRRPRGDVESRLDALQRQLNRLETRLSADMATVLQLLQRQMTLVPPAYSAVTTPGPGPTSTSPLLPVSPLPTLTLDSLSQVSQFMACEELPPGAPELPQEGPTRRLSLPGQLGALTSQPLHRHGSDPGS

NC(=O)c1cc(Cn2cc(-c3c(-c4ccc(Cl)cc4)nc4cc(F)ccn34)nn2)ccc1Cl [MI-883, 2-chloro-5-((4-(2-(4-chlorophenyl)-7-fluoroimidazo[1,2-a]pyridin-3-yl)-1H-1,2,3-triazol-1-yl)methyl)benzamide]
TR-FRET CAR Coactivator assay, mean signal (Fig. 1b) ([1]; 100pM): 1
TR-FRET CAR Coactivator assay, mean signal (Fig. 1b) ([1]; 1nM): 1.012
TR-FRET CAR Coactivator assay, mean signal (Fig. 1b) ([1]; 10nM): 1.235
TR-FRET CAR Coactivator assay, mean signal (Fig. 1b) ([1]; 100nM): 1.572
TR-FRET CAR Coactivator assay, mean signal (Fig. 1b) ([1]; 0.5μM): 1.870
TR-FRET CAR Coactivator assay, mean signal (Fig. 1b) ([1]; 1 μM): 2.020
TR-FRET CAR Coactivator assay, mean signal (Fig. 1b) ([1]; 10 μM): 2.020
TR-FRET CAR Coactivator assay, mean signal (Fig. 1b) ([1]; 30 μM): 2.046
EC50 ([1]; recombinant CAR LBD): 73 ± 20 nM
fold mRNA induction CYP3A4 in livers of humanized PXR-CAR-CYP3A mice ([2]; MI-883 10 mg/kg i.p. 3 days, not significant): 1.9 fold
hepatic CYP3A4 mRNA, hPXR/hCAR/CYP3A4/7 mice (Fig. 3e), individual animals ([2]; Rif + MI-883 combination i.p.): 15.1375 and 21.1204 and 7.333 and 13.3527
hepatic Cyp2b10 mRNA, hPXR/hCAR/CYP3A4/7 mice (Fig. 3e), individual animals ([2]; Rif + MI-883 combination i.p.): 37.4609 and 22.8189 and 29.2533 and 22.0407
hepatic CYP3A4 mRNA, hPXR/hCAR/CYP3A4/7 mice (Fig. 3e), individual animals [2, 7]: 2.527 and 2.124 and 1.135
hepatic Cyp2b10 mRNA, hPXR/hCAR/CYP3A4/7 mice (Fig. 3e), individual animals [2, 7]: 5.955 and 3.722 and 12.2143
Cyp2b10 mRNA in the liver, preliminary studies ([2]; single dose of 5 mg/kg in oral gavage): significant induction
total BA content in the stool after 24 h [3]: significant increase
total bile acid concentration in plasma and livers [3]: not affected
βMCA and CDCA in the stool [3]: significant (P < 0.05) increase
half-life at 2 µM ([4]; human, liver S9 fraction): 2.85 h
microsomal CLint at 2 µM ([4]; human, liver S9 fraction): 2 µL/min/mg
Stability in S9 fraction (human liver), % remaining ([4]; time 0 (min), 2 μM): 100
Stability in S9 fraction (human liver), % remaining ([4]; time 20): 100
Stability in S9 fraction (human liver), % remaining ([4]; time 40): 92
Stability in S9 fraction (human liver), % remaining ([4]; time 60): 96
Stability in S9 fraction (human liver), % remaining ([4]; time 120): 84
hERG IC50 [5]: could not be defined
hERG assay, inhibition of hERG potassium channel activity [5]: no significant inhibition up to 100 µM
NRs assays: ERbeta (relative to ctrl, replicates) [6]: 0.84 and 0.86 and 0.88
